Results as given in ChEMBL document CHEMBL5303711, “ECBD screening data for assay EOS300108” (2023).
Counter-ions that a name gives are not always drawn. The source made the active and inactive calls. No rule for the calls is given here.

Experiment: Cytotoxicity activity against human HepG2 cells assessed by CellTiter-Glo luminescent cell viability assay.
Type: toxicity, cell-based
Design: assay stage confirmatory assay, source tissue liver
Settings: HepG2 cells, read-out: IC50 relative

| Compound | CC50 |
| --- | --- |
| Nc1nc(Nc2ccc3c(c2)CC[C@@H](N2CCCC2)CC3)nn1-c1cc2c(nn1)-c1ccccc1CCC2 [BEMCENTINIB] | 1.2 µM (active) |
| COCC(=O)N1CCCN(Cc2ccc3c4c(cccc24)C(=O)OC3)CC1 | 13.4 µM (active) |
| CCCCc1cc(NC(=O)[C@H]2CC(=O)N(Cc3ccccc3)C2)[nH]n1 | 1.8 µM (active) |
| CCCc1cnc(NC(=O)CCc2nnc(-c3ccsc3)o2)s1 | 8.5 µM (active) |
| CCCS(=O)(=O)N1CCc2ccc(NC(=O)Nc3cccc(OC)c3)cc21 | 4.9 µM (active) |
| CN(c1ccccc1CNc1nc(Nc2ccc3c(c2)CC(=O)N3)ncc1C(F)(F)F)S(C)(=O)=O | 1 µM (active) |
| O=C(c1cccc2cnccc12)N1CCc2c(nc(-c3ccccc3)[nH]c2=O)C1 | 1.5 µM (active) |
| O=C(Nc1nc2cc(C(F)(F)F)ccc2[nH]1)C1=COCCO1 | 7.1 µM (active) |
| Cn1cc(S(=O)(=O)N2CCC[C@@H]2COc2ccc(F)cc2)cc1C(N)=O | 0.6 µM (active) |
| COc1c(C)ncnc1NCc1cccc(C(F)(F)F)c1 | 2.9 µM (active) |
| C=CCN(C)CCCCCCOc1ccc(C(=O)c2ccc(Br)cc2)c(F)c1 | 2.8 µM (active) |
| Cc1ccc(/N=c2\ssnc2Cl)nc1 | 16.4 µM (inactive) |
| Cc1cc(N2CCN([C@@H](C)C(=O)Nc3ccc(C#N)cc3)CC2)nc(C(C)C)n1 | 11.2 µM (active) |
| COc1cc(-c2nnc(SC3=CS(=O)(=O)c4ccccc43)o2)cc(OC)c1OC | 2.5 µM (active) |
| CC1CN(CCS(=O)(=O)c2ccc(Oc3ccc(S(=O)(=O)CCN4CC(C)OC(C)C4)cc3)cc2)CC(C)O1 (stereo not drawn) | 6.1 µM (active) |
| COc1cc2c(Nc3ccc(NC(=O)c4ccccc4)cc3)ncnc2cc1OCCCN1CCOCC1 | 3.2 µM (active) |
| NC(=S)N/N=C/c1ncccc1N [TRIAPINE] | 5.3 µM (active) |
| CC[C@H]1CC[C@@H](C)N(C(=O)c2nc(C3CC3)n3ccccc23)C1 | 7.5 µM (active) |
| CC(C)c1cc(-c2n[nH]c(=O)n2-c2ccc3c(ccn3C)c2)c(O)cc1O [GANETESPIB] | < 0.1 µM (active) |
| O=c1c2ccccc2sn1CN1CCN(c2ccc(C(F)(F)F)cn2)CC1 | 8.6 µM (active) |
| CCOc1ccc(S(=O)(=O)N2CC(C)CC(C)C2)cc1C (stereo not drawn) | 17 µM (inactive) |

| Compound | CC50 |
| --- | --- |
| CN1CCC(CNc2ccc3ncc(-c4cccc(OC(F)(F)F)c4)n3n2)CC1 [SGI-1776] | 1.5 µM (active) |
| Cc1c(NC(=O)OC[C@@H]2COCCN2)cn2ncnc(Nc3ccc4c(cnn4Cc4cccc(F)c4)c3)c12 | 9 µM (active) |
| CC(C)n1ncc2cc(NC(=O)c3ccc(=O)n(Cc4ccccc4)n3)cnc21 | 9.2 µM (active) |
| COc1ccccc1C(=O)Cc1nc2ccccc2o1 | 8 µM (inactive) |
| CCn1cc(CN2C[C@@H]3C[C@H](NC(C)=O)CN3C(=O)[C@@H]2CC(C)C)c2ccccc21 | 13.6 µM (inactive) |
| CN1CCC(NC(=O)c2ccc3c(c2)n(Cc2ccccc2)c(=O)c2ccnn23)CC1 | 9.8 µM (active) |
| CCNC(=O)C[C@@H]1N=C(c2ccc(Cl)cc2)c2cc(OC)ccc2-n2c(C)nnc21 [MOLIBRESIB] | 2.6 µM (active) |
| Nc1ncccc1-c1nc2ccc(-c3ccccc3)nc2n1-c1ccc(C2(N)CCC2)cc1 [MIRANSERTIB] | 4.2 µM (active) |
| CN(C)CCNC(=O)c1ccc2c(c1)n(Cc1cccc(F)c1)c(=O)c1ccnn12 | 12.7 µM (active) |
| CCn1c(NC(=O)c2ccc(OC)c(OC)c2)nc2cc(C#N)ccc21 | 2.3 µM (active) |
| COc1ccccc1-c1cc(Nc2cccc(CS(N)(=O)=O)c2)ncn1 | 2.5 µM (active) |
| CN(C(=O)Cn1c(S(C)(=O)=O)nc2ccccc21)c1ccccc1 | 5.1 µM (inactive) |
| CC[C@@]1(O)C(=O)OCc2c1cc1n(c2=O)Cc2cc3ccccc3nc2-1 [CAMPTOTHECIN] | 0.2 µM (active) |
| O=C(c1ccncc1)N1CCC2(CC1)CC(Cc1nc(-c3ccncc3)no1)CCO2 (stereo not drawn) | 5.2 µM (active) |
| Cc1cc(C)cc(-n2ncc3c(OCC(=O)N4CCN(C(=O)c5ccco5)CC4)ncnc32)c1 | 3.6 µM (active) |
| Cc1ccc(NC(=O)CCN(C)CC2CCN(C)C2(C)C)cc1F (stereo not drawn) | 9.7 µM (active) |
| Cn1c(=O)c(F)c(Nc2ccc(I)cc2F)c2c(=O)n(C[C@@H](O)CO)cnc21 [TAK-733] | < 0.1 µM (active) |
| c1csc(Cn2cccc2CN2CCC[C@H](N3CCCC3)CC2)c1 | 5.2 µM (active) |
| C[C@@H](Oc1cc(-c2cnn(C3CCNCC3)c2)cnc1N)c1c(Cl)ccc(F)c1Cl [CRIZOTINIB] | 2.8 µM (active) |
| CC(CNC(=O)C1CCN(C)CC1)Cc1cccc2ccccc12 (stereo not drawn) | 11.2 µM (active) |
| CC(C)(C)Cc1cc(NC(=O)[C@@H]2CCCN2C(=O)c2ccc3c(c2)OCO3)[nH]n1 | 0.8 µM (active) |

| Compound | CC50 |
| --- | --- |
| CCc1ccc(S(=O)(=O)N2CCN(c3ccc(C(C)=O)cc3)CC2)cc1 | 50 µM (inactive) |
| COc1ccc2c(c1)CN(C)CC2c1ccc(Cl)c(Cl)c1 (stereo not drawn) | 12.6 µM (active) |
| N#Cc1c(Oc2ccc(F)c(NC(=O)Cc3cccc(C(F)(F)F)c3)c2)ccc2nc(NC(=O)C3CC3)sc12 | 0.4 µM (active) |
| Cc1ccc(NCc2cc(=O)n3c(C)csc3n2)c(F)c1 | 7.2 µM (active) |
| O=S(=O)(Nc1ccc(Cl)c2cccnc12)c1c[nH]c2ncccc12 | 5.5 µM (inactive) |
| CC(=O)N1CCCc2cc(S(=O)(=O)N3CCCC(C(=O)N4CCN(c5ccccc5)CC4)C3)ccc21 (stereo not drawn) | 12.7 µM (inactive) |
| COc1ccc(NC(=O)Nc2ccc3c(c2)N(S(C)(=O)=O)CC3)cc1Cl | 10.5 µM (inactive) |
| [H]/N=C(\N/C(=N/[H])NCCCCCCNC(=N)NC(=N)Nc1ccc(Cl)cc1)Nc1ccc(Cl)cc1 [CHLORHEXIDINE] | 4.6 µM (active) |
| Cc1cccc2nc(C(=O)Nc3cccc4cccnc34)cn12 | 0.1 µM (active) |
| O=C(NCc1ccc(S(=O)(=O)c2cc(F)cc(F)c2)cc1)c1ccc2nccn2c1 | < 0.1 µM (active) |
| CN1CCCN(C(=O)c2cccc(-c3ccc(/C=C4/C(=O)Nc5ccc(Cl)cc54)o3)c2)CC1 | 0.6 µM (active) |
| CC(C)(C)c1ccc(C(O)CCCN2CCC(C(O)(c3ccccc3)c3ccccc3)CC2)cc1 (stereo not drawn) [TERFENADINE] | 3.1 µM (active) |
| O=C(N[C@H]1CN2CCC1CC2)c1cc2cccc(Cl)c2s1 | 5.9 µM (active) |
| CCCNC(=O)N1CC(Oc2ccc(-c3noc(C4CC4)n3)cc2)C1 | 6.1 µM (active) |
| CCc1c2c(nc3ccc(O)cc13)-c1cc3c(c(=O)n1C2)COC(=O)[C@]3(O)CC [7-ETHYL-10-HYDROXYCAMPTOTHECIN] | 0.2 µM (active) |
| CC1(C)CC(=O)c2c(C(F)(F)F)nn(-c3ccc(C(N)=O)c(N[C@H]4CC[C@H](O)CC4)c3)c2C1 [SNX-2112] | < 0.1 µM (active) |
| O=C(NC1(c2ccccc2)CC1)c1c(CN2CCC(N3CCCCC3)CC2)c(-c2cccc(C(F)(F)F)c2)nc2cc(Br)ccc12 | 2.6 µM (active) |
| Cc1c(Cl)sn(-c2ccc(Cl)cc2)c1=O | 4.4 µM (active) |
| Cc1cc(NC(=O)N[C@H]2CCN(CC3CCCC3)C2)cc(N2CCN(C)CC2)c1 | 9.3 µM (active) |
| CC(=O)c1ccc(NC(=O)c2cccc3cccnc23)cc1 | 0.9 µM (active) |
| O=C(CCN1CCC(c2ccccc2)C1)c1ccc2c(c1)OCCO2 (stereo not drawn) [PROROXAN HYDROCHLORIDE] | 8.4 µM (active) |
